According to patent EP2145538A1 (priority 2008, dated 2010):
≈ marks a conversion by molar mass, not a printed value. Where “and” joins values, the source holds several entries; their conditions need not be identical. Equal values may be shown once. Entries after “also recorded” stand apart in the source; their conditions may differ. Read-outs that look alike come from different tables or passages of the source.

How the values were obtained:
Fusarium graminearum [1] = assay: microbe, parasite or virus in culture; format: cell-based; settings: for Einfluss auf das Wachstum von Fusarium graminearum: Saccharose as sole C source, up to 14 days
[2] = tested on: Amylasen aus Kulturfiltrat (Strohextrakt) von in vitro angezogenem Fusarium graminearum; format: biochemical; settings: for Hemmung der Enzymaktivität: result in words
Fusarium graminearum [3] = format: in vivo; settings: for Fusarium Protein Equivalent (µg/g), Mittelwert: above-ground parts; for Fusarium Protein Equivalent (µg/g), Mittelwert / Fusarium Protein Equivalent (µg /g), Mean: 2 weeks after sowing; for Aussehen der behandelten, infizierten Pflanzen (Fotos): folded filter, very high infection pressure; for Reduktion des Befalls der Wurzeln (ELISA): roots of infected wheat seedlings on folded filter; for Fusarium Protein Equivalent (µg /g), Mean: roots
[4] = tested on: Blumeria graminis f. sp. tritici; assay: Powdery mildew rating on sprayed wheat plants (MOLL et al. 1996); format: in vivo; settings: 7 dpi; spray treatment at 3-leaf stage; AI-1 and AI-2 1 mg/ml, CI 100 µg/ml; Kontrolle 60
From the text: Nach einer Sprühbehandlung der Weizenpflanzen im 3-Blatt-Stadium und anschließender Inokulation (nach Abtrocknen) mit Mehltau Blumeria graminis f. sp. tritici sind eindeutige Hemmeffekte zu erkennen (Figur 25-27). Eine Bonitur nach MOLL et al. (1996) ergab für den Amylase-Inhibitor AI-1 eine Befallsreduktion von 60% auf 7%, für den Amylase-Inhibitor AI-2 auf 1 % und für den Cellulase-Inhibitor CI auf 10% (Tabelle 3). Tab. 3: Bonitur des Mehltaubefalls (Blumeria graminis f. sp. tritici) nach MOLL et al. (1996) 7 dpi.

[5] = molecular target: Amylase aus Aspergillus oryzae (Aspergillus oryzae, UniProt P0C1B3); assay: Amylase activity assay in microtiter plates (dye-labelled starch substrate), commercial enzymes; format: biochemical; settings: both Aspergillus amylases (35 U/mg Fluka, 200 U/mg Sigma); result in words
From the text: (§1) Diese Methode basiert auf folgendem Prinzip:

Fusarium graminearum [6] = format: in vivo
Weizenpflanzen = settings: in vivo
[7] = tested on: Amylasen von mit F. graminearum infizierten Pflanzen; format: biochemical, Fusarium graminearum; settings: for Hemmung der Enzymaktivität: result in words
Humanspeichelamylase = molecular target: T1, Humanspeichelamylase (Homo sapiens, UniProt P0DUB6); assay: Amylase activity assay in microtiter plates (dye-labelled starch substrate), commercial enzyme; format: biochemical; settings: for Hemmung der Enzymaktivität: result in words
T1 construct: purchased Sigma
T1 sequence (P0DUB6 16-511): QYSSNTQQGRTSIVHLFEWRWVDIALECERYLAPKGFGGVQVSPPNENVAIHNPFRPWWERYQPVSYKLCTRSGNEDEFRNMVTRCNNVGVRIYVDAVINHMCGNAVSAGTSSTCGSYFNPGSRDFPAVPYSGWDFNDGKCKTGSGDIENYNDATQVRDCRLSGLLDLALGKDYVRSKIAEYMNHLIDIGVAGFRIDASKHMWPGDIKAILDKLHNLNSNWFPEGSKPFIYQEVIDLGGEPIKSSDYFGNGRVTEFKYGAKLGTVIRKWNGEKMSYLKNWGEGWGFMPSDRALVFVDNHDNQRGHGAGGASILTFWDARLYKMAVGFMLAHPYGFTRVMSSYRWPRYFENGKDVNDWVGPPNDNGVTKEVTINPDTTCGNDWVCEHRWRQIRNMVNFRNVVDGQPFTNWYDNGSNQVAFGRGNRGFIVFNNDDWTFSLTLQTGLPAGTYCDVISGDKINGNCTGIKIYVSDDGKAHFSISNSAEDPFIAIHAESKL
From the text: as §1

Amylase aus Bacillus sp. = assay: as above; format: biochemical; settings: for Hemmung der Enzymaktivität: result in words
From the text: as §1

Endoglukanase II (EG II) = molecular target: T2, Endoglukanase II (EG II) (Trichoderma reesei, UniProt P07982); settings: result in words; cited from earlier work
T2 sequence (P07982 22-418): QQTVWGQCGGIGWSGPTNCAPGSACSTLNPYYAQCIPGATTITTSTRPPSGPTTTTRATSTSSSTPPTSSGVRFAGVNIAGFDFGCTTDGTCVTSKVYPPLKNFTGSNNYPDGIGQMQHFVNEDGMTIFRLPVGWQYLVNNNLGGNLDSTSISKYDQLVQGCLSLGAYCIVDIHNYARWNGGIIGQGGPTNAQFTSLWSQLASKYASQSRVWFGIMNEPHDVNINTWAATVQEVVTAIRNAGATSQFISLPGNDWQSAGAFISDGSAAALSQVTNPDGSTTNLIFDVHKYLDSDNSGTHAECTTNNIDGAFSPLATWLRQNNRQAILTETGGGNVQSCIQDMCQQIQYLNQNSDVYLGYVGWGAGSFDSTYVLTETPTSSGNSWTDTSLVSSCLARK

[8] = molecular target: T3, Cellobiohydrolase I (CBH I) (Trichoderma reesei, UniProt P62694); settings: result in words; cited from earlier work
T3 sequence (P62694 18-513): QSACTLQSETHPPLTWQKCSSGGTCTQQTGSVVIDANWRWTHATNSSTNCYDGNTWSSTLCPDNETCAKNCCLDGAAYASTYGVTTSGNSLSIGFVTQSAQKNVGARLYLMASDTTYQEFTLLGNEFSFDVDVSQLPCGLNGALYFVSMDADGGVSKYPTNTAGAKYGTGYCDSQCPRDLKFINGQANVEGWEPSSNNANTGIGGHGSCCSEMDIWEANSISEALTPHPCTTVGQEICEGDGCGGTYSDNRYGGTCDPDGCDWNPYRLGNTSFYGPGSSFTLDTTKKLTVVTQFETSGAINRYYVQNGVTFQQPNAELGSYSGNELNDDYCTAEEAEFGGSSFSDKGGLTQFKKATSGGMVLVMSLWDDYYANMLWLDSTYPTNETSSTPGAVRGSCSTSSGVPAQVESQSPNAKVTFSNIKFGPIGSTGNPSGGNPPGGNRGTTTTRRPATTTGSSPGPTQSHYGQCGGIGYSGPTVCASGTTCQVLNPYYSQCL

Erbsen = assay: Plant tolerance: germination of peas after imbibition in inhibitor solution; format: in vivo; settings: imbibition in a solution of 1 mg/ml; result in words
[9] = infected with F.g. + inhibitor, infected control 341,44
[10] = infected with F.g. + inhibitor, infected control 1261,2
[11] = Stärke as sole C source, 14 days

With `CC1OC(OC2C(CO)OC(OC3C(CO)OC(O)C(O)C3O)C(O)C2O)C(O)C(O)C1NC1C=C(CO)C(O)C(O)C1O` (stereo not drawn) [AI-1, Acarbose] the MIC (Fusarium graminearum [1]; Fusarium graminearum, 336 h, read-out: Konzentration, bei der das Wachstum total gehemmt wird) was 30 µg/mL (≈ 46.5 µM), the inhibition of growth at 15 µg/mL (Fusarium graminearum [1]; Fusarium graminearum, read-out: Hemmung des Wachstums) was about 50% and the “Einfluss auf das Wachstum von Fusarium graminearum” value (Fusarium graminearum [1]; result in words) was “keinen negativen Einfluss; also recorded: sogar gefördert”. The “Faktor effektiver als der Cellulase-Inhibitor gegenüber Stärke als Substrat” value (Fusarium graminearum [1]; total inhibition, 30 µg/ml versus 100 µg/ml) was 3, the “Konzentration, bei der die Amylasen total gehemmt wurden” value [2] was 0,06 mg/ml and the “Amylase-Aktivität reduziert bis auf” value ([2]; 5 µg/ml, remaining activity) was 28%. For the same compound, the “Fusarium Protein Equivalent (µg/g), Mittelwert” value (Fusarium graminearum [3]; [9]) was 25,2 µg/g, the “Fusarium Protein Equivalent (µg/g), Mittelwert” value (Fusarium graminearum [3]; not infected (K) + inhibitor) was 2,2 µg/g and the “Aussehen der behandelten, infizierten Pflanzen (Fotos)” value (Fusarium graminearum [3]; result in words) was “fast normal aussehen”. For the same compound, the “Effekt auf der Basis des Frischgewichtes” value (Fusarium graminearum [3]; infected wheat seedlings on folded filter, 2 weeks, result in words) was “starke befallreduzierende Effekt; also recorded: positive Effekt”, the “Reduktion des Befalls der Wurzeln (ELISA)” value (Fusarium graminearum [3]; 2 weeks) was 66% and 61% and the “Fusarium Protein Equivalent (µg /g), Mean” value (Fusarium graminearum [3]; [10]) was 554,8 µg /g. For the same compound, the “Fusarium Protein Equivalent (µg /g), Mean” value (Fusarium graminearum [3]; not infected (K) + inhibitor) was 6,3 µg /g, the “Befall (%)” value [4] was 7% and the “Hemmung der Enzymaktivität” value [5] was “nicht oder nur sehr schwach beeinflusst”. For the same compound, the “Reduktion der Pilzmenge (ELISA)” value (Fusarium graminearum [6]; Versuch 1, 4 weeks, seed dip treatment) was 66%, the “Hemmung des Pilzwachstums (ELISA)” value (Fusarium graminearum [6]; Versuch 1, 4 weeks, seed dip treatment, result in words) was “vollständige Hemmung” and the “Hemmung des Pilzwachstums / Reduktion der Pilzmenge (ELISA)” value (Fusarium graminearum [6]; Versuch 2, 4 weeks, seed dip treatment) was 60% and 85%. The “Blattfrischgewicht infizierter Pflanzen” value (Fusarium graminearum [6]; soil substrate, greenhouse, 4 weeks, AI-1 1 mg /ml seed treatment, result in words) was “hebt diese Frischgewichtsdepression auf; also recorded: gleiche Frischgewicht wie die nicht infizierte Kontrolle”, the “Hemmung von Keimung und Pflanzenwachstum” value (Weizenpflanzen) was “weder der Amylase-Inhibitor AI-1 noch der amylasehemmende Wirkung zeigende Cellulose-Inhibitor die Keimung und das Pflanzenwachstum hemmten” and the “Amylasen gehemmt bis auf” value ([7]; 0,5 mg/ml, not totally switched off) was 69,2%. The “Hemmung der Enzymaktivität” value [7] was “starke, wenn auch nicht vollständige Hemmung”, the IC100 (Humanspeichelamylase; Humanamylase (500 U/mg, Sigma), read-out: Konzentration, bei der die Amylase vollständig / total gehemmt wird) was 250 µg/mL and the “Hemmung der Enzymaktivität” value (Amylase aus Bacillus sp.; 0,5 mg/ml) was “ebenfalls gehemmt, jedoch durch diese Konzentration nicht total ausschaltet”.

With Na2PdCl6 · 4 H2O [CI] the “Hemmung des Pilzwachstums” value (Fusarium graminearum [1]; Cellulose as C source, 12,5 µg/ml, 14 days, result in words) was “deutliche Wachstumsdepression”, the Wachstumsdepression (Fusarium graminearum [1]; Cellulose as C source, ab 50 bis 100 µg/mL, 14 days) was 100% and the “Konzentration, bei der das Wachstum total gehemmt ist” value (Fusarium graminearum [1]; Cellulose as sole C source) was 50 µg/mL. For the same compound, the Wachstumsrate reduziert um (Fusarium graminearum [1]; Cellulose as sole C source, 12,5 µg/ml) was “ca. 50%”, the “Einfluss auf das Wachstum von Fusarium graminearum” value (Fusarium graminearum [1]; result in words) was “nicht gehemmt” and the “Einfluss auf das Wachstum” value (Fusarium graminearum [1]; Stärke as sole C source, 6,5-12,5 µg/ml, result in words) was “verifizierbare Wachstumsförderung”. The “Konzentration, ab der das Wachstum partiell gehemmt wird” value (Fusarium graminearum [1]; [11]) was at least 75 µg/mL, the “Konzentration, bei der das Wachstum total gehemmt wird” value (Fusarium graminearum [1]; [11]) was at least 100 µg/mL and the “Konzentration, bei der das Wachstum total gehemmt wird” value (Fusarium graminearum [1]; Stärke as sole C source, 14 days, listed as Cellulase-Inhibitor) was 100 µg/mL. The “Hemmung der Enzymaktivität” value [2] was “nicht bzw. nur unwesentlich hemmt”, the “Hemmung der Enzymaktivität” value ([2]; listed as Cellulase-Inhibitor) was “bei höheren Konzentrationen auch die Amylasen des Fusarium-Kulturfiltrates hemmt; also recorded: unbeeinflusst blieben” and the “Fusarium Protein Equivalent (µg/g), Mittelwert” value (Fusarium graminearum [3]; [9]) was 66,34 µg/g. The “Fusarium Protein Equivalent (µg/g), Mittelwert” value (Fusarium graminearum [3]; not infected (K) + inhibitor) was 0,04 µg/g, the “Aussehen der behandelten, infizierten Pflanzen (Fotos)” value (Fusarium graminearum [3]; result in words) was “grüner aus, sind aber im Wuchs doch deutlich reduziert” and the “Reduktion des Befalls der Wurzeln (ELISA)” value (Fusarium graminearum [3]; 2 weeks) was 51%. The “Fusarium Protein Equivalent (µg /g), Mean” value (Fusarium graminearum [3]; [10]) was 618,9 µg /g, the “Fusarium Protein Equivalent (µg /g), Mean” value (Fusarium graminearum [3]; not infected (K) + inhibitor) was 49,0 µg /g and the Inhibition (Endoglukanase II (EG II)) was “in starkem Maße zu inhibieren”. The Inhibition [8] was “in starkem Maße zu inhibieren”, the “Befall (%)” value [4] was 10% and the “Hemmung der Enzymaktivität” value [5] was “unbeeinflusst blieben”. The “Hemmung des Pilzwachstums” value (Fusarium graminearum [6]; soil substrate, greenhouse, 4 weeks, both trials, CI 100µg /ml seed treatment, result in words) was “nicht hemmt; also recorded: keinerlei Effekt”, the “Hemmung von Keimung und Pflanzenwachstum” value (Weizenpflanzen) was “weder der Amylase-Inhibitor AI-1 noch der amylasehemmende Wirkung zeigende Cellulose-Inhibitor die Keimung und das Pflanzenwachstum hemmten” and the “negativer Effekt auf das Pflanzenwachstum” value (Weizenpflanzen) was “keinerlei negativen Effekt auf das Pflanzenwachstum”. The “Hemmung der Enzymaktivität” value [7] was “nicht bzw. nur unwesentlich hemmt”, the “Hemmung der Enzymaktivität” value ([7]; listed as Cellulase-Inhibitor) was “unbeeinflusst blieben” and the “Konzentration, bei der die Amylase vollständig / total gehemmt wird” value (Humanspeichelamylase; Humanamylase (500 U/mg, Sigma)) was 25 µg/mL. The “Hemmung der Enzymaktivität” value (Humanspeichelamylase) was “bei höherer Konzentration hemmte”, the “Konzentration, bei der die Amylase total gehemmt wird” value (Amylase aus Bacillus sp.; Bacillus-Amylase) was 100 µg/mL and the “Hemmung der Enzymaktivität” value (Amylase aus Bacillus sp.) was “bei höherer Konzentration hemmte”.

In the case of `OCCN1C[C@H](O)[C@@H](O)[C@H](O)[C@H]1CO` [AI-2, Miglitol], the “Einfluss auf das Wachstum von Fusarium graminearum” value (Fusarium graminearum [1]; result in words) is reported as “keinen Einfluss”, the “Einfluss auf das Pilzwachstum” value (Fusarium graminearum [1]; Stärke as sole C source, result in words) is reported as “keinen Einfluss” and the “Einfluss auf das Wachstum des Pilzes in vitro” value (Fusarium graminearum [1]; result in words) is reported as “keinerlei hemmenden Einfluss”. For the same compound, the “Hemmung der Keimung” value (Erbsen) was “vollständig”, the “Hemmung der Enzymaktivität” value [2] was “konnte weder die im Handel erhältlichen Amylasen bzw. Cellulasen der verschiedenen Mikroorganismen noch die von Fusarium graminearum in vitro oder in der Pflanze gebildeten Amylasen inhibieren” and the “Fusarium Protein Equivalent (µg /g), Mean” value (Fusarium graminearum [3]; [10]) was 813,0 µg /g. The “Fusarium Protein Equivalent (µg /g), Mean” value (Fusarium graminearum [3]; not infected (K) + inhibitor) was 7,6 µg /g, the “Befall (%)” value [4] was 1% and the “Hemmung der Enzymaktivität” value [5] was “weder die Humanamylase noch die verwendeten käuflichen Amylasen aus Bakterien bzw. Pilzen hemmt; also recorded: nicht zu hemmen vermochte”. The “Einfluss auf das ausgewachsene Blatt” value (Weizenpflanzen) was “keinen Einfluss auf das ausgewachsene Blatt”, the “Hemmung der Keimung” value (Weizenpflanzen) was “vollständig” and the “Hemmung der Keimung der Weizenpflanzen” value (Weizenpflanzen) was “so stark hemmte, dass sich Jungpflanzen nicht entwickeln konnten”. The “Hemmung der Enzymaktivität” value [7] was “wirkungslos; also recorded: keine Wirkung; also recorded: konnte weder die im Handel erhältlichen Amylasen bzw. Cellulasen der verschiedenen Mikroorganismen noch die von Fusarium graminearum in vitro oder in der Pflanze gebildeten Amylasen inhibieren”, the “Hemmung der Enzymaktivität” value (Humanspeichelamylase) was “weder die Humanamylase noch die verwendeten käuflichen Amylasen aus Bakterien bzw. Pilzen hemmt; also recorded: nicht zu hemmen vermochte” and the “Hemmung der Enzymaktivität” value (Amylase aus Bacillus sp.) was “weder die Humanamylase noch die verwendeten käuflichen Amylasen aus Bakterien bzw. Pilzen hemmt; also recorded: nicht zu hemmen vermochte”.
